# Assay results taken from the supplement of paper PMC10307832.
# Assays:
# Assay in all cases: relative viability (nuclei count vs DMSO), 5 days (fraction); higher = more cells survive
# Erlotinib + Palbociclib = compound: C#Cc1cccc(Nc2ncnc3cc(OCCOC)c(OCCOC)cc23)c1 [Erlotinib] + CC(=O)c1c(C)c2cnc(Nc3ccc(N4CCNCC4)cn3)nc2n(C2CCCC2)c1=O [Palbociclib] (partner 0.5 µM)
# How it was run: (§1)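 For relative viability, nuclei counts in treated wells were divided by those in vehicle wells. Lung cancer cell lines had been pin-tool dosed in 1536-well plates the day after seeding and cultured for 5 days, then fixed and stained in one step (final 0.05% Triton X-100, 1% formaldehyde, 1 ug/ml Hoechst) and imaged at 4×. Doses were one drug alone or a fixed anchor-drug dose plus five library-drug doses (not always all listed) in √10 steps, and values are duplicate-plate medians.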
# Erlotinib + OSI-027 = compound: C#Cc1cccc(Nc2ncnc3cc(OCCOC)c(OCCOC)cc23)c1 [Erlotinib] + COc1cccc2cc(-c3nc([C@H]4CC[C@H](C(=O)O)CC4)n4ncnc(N)c34)[nH]c12 [OSI-027] (partner 0.5 µM)
# How it was run: as §1
# Erlotinib + AZD7762 = compound: C#Cc1cccc(Nc2ncnc3cc(OCCOC)c(OCCOC)cc23)c1 [Erlotinib] + NC(=O)Nc1cc(-c2cccc(F)c2)sc1C(=O)N[C@H]1CCCNC1 [AZD7762] (partner 0.2 µM)
# How it was run: as §1
# AT9283 + Alpelisib = compound: O=C(Nc1c[nH]nc1-c1nc2ccc(CN3CCOCC3)cc2[nH]1)NC1CC1 [AT9283] + Cc1nc(NC(=O)N2CCC[C@H]2C(N)=O)sc1-c1ccnc(C(C)(C)C(F)(F)F)c1 [Alpelisib] (partner 2 µM)
# How it was run: as §1
# AT9283 + Decitabine = compound: O=C(Nc1c[nH]nc1-c1nc2ccc(CN3CCOCC3)cc2[nH]1)NC1CC1 [AT9283] + Nc1ncn([C@H]2C[C@H](O)[C@@H](CO)O2)c(=O)n1 [Decitabine] (partner 2 µM)
# How it was run: as §1
cell line,measurement,setting,value
NCI-H441,relative viability,Erlotinib + Palbociclib; first compound 0.02 µM,0.196
same,relative viability,Erlotinib + Palbociclib; first compound 0.2 µM,0.212
same,relative viability,Erlotinib + Palbociclib; first compound 0.6325 µM,0.177
same,relative viability,Erlotinib + Palbociclib; first compound 2 µM,0.186
same,relative viability,Erlotinib + OSI-027; first compound 0.02 µM,0.603
same,relative viability,Erlotinib + OSI-027; first compound 0.6325 µM,0.535
same,relative viability,Erlotinib + OSI-027; first compound 2 µM,0.355
same,relative viability,Erlotinib + AZD7762; first compound 0.02 µM,1.2
same,relative viability,Erlotinib + AZD7762; first compound 0.2 µM,1.06
same,relative viability,Erlotinib + AZD7762; first compound 0.6325 µM,1.1
same,relative viability,Erlotinib + AZD7762; first compound 2 µM,1.11
same,relative viability,AT9283 + Alpelisib; first compound 0.003 µM,0.717
same,relative viability,AT9283 + Alpelisib; first compound 0.03 µM,0.641
same,relative viability,AT9283 + Alpelisib; first compound 0.09487 µM,0.235
same,relative viability,AT9283 + Alpelisib; first compound 0.3 µM,0.198
same,relative viability,AT9283 + Decitabine; first compound 0.003 µM,0.245
same,relative viability,AT9283 + Decitabine; first compound 0.03 µM,0.281
same,relative viability,AT9283 + Decitabine; first compound 0.09487 µM,0.202
same,relative viability,AT9283 + Decitabine; first compound 0.3 µM,0.217
